# Tests used:
# mMincle-Ig = molecular target: T1, mMincle-Ig (Mus musculus, UniProt Q9R0Q8); test: In vitro Mincle binding assay (ELISA) with mMincle-Ig fusion protein; parameters: species or system murine; conditions: plate-coated ligand 0.1 nmol/well
# T1 construct: using soluble Mincle-Ig fusion-proteins; made in house
# T1 sequence (Q9R0Q8 46-214 limits assumed): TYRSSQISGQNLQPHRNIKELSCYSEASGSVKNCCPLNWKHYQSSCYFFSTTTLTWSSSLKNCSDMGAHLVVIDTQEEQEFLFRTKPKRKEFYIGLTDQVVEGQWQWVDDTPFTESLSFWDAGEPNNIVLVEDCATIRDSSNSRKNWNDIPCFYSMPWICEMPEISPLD
# Protocol: (§1) Preparation of ligand-coated plates: Brartemicin analogues 9a-9i, TDM (Carbosynth, Sigma Aldrich), and TDB^14 were dissolved in CHCl3:MeOH (2:1, 1 mM), diluted in isopropanol ([…]) and added to 96-well plates (20 μL/well). The solvents were evaporated and the coated plates were used immediately.
# (§2) In vitro Mincle binding assay: The preparation of mMincle- and hMincle-Ig fusion proteins have been previously described. Plate-coated glycolipids 9a-i, TDB, and TDM were incubated with hMincle-Ig, mMincle-Ig, or hIgG1-Fc (Ig) [3 μg/mL in binding buffer (20 mM Tris-HCl, 150 mM NaCl, 1 mM CaCl2), 2 mM MgCl2, pH 7.0)]. Detection of bound protein was achieved via incubation with anti-hIgG-HRP followed by the addition of a colorimetric substrate and measurement of OD at 450 nm. Background was accounted for by subtracting the hIgG1-Fc OD450 values from fusion protein OD450 values
# (§3) The synthesised brartemicin analogues prepared in Example 1 were first tested for their ability to bind to both human and murine Mincle in an enzyme-linked immunosorbent assay (ELISA) using soluble Mincle-Ig fusion-proteins (FIG. 1a).
# hMincle-Ig = molecular target: T2, hMincle-Ig (Homo sapiens, UniProt Q9ULY5); test: In vitro Mincle binding assay (ELISA) with hMincle-Ig fusion protein; conditions: plate-coated ligand 0.1 nmol/well
# T2 construct: using soluble Mincle-Ig fusion-proteins; made in house
# T2 sequence (Q9ULY5 41-219 limits assumed): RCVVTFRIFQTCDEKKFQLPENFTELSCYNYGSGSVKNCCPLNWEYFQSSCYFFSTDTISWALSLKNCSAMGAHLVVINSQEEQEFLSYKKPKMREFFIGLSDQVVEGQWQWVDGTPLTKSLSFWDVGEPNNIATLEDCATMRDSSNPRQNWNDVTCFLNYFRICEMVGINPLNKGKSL
# Protocol: as §1, §2, §3
# mMincle+FcRγ = molecular target: T3, mMincle+FcRγ (Mus musculus, UniProt Q9R0Q8); test: 2B4-NFAT-GFP reporter cells expressing mMincle+FcRγ; format: cell-based, murine; conditions: ligand-coated plates 0.01, 0.1 or 1 nmol/well, 18 hours
# T3 construct: expressed in transfected cells; host or cells: 2B4-NFAT-GFP reporter cells
# T3 sequence (Q9R0Q8 1-214): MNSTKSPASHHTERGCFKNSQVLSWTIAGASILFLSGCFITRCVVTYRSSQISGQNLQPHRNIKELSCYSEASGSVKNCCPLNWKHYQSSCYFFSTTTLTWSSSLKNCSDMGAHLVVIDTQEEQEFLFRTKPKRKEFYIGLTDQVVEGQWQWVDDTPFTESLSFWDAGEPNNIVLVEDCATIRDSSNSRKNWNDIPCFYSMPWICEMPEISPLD
# T3 sequence (P20491 19-86 partner): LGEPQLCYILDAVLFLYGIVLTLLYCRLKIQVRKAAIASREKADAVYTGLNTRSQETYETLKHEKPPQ
# Protocol: as §1
# (§4) 2B4-NFAT-GFP reporter cells: 2B4-NFAT-GFP reporter cells expressing mMincle+FcRγ, hMincle+FcRγ, or FcRγ only have been previously described. […] The reporter cells were harvested, stained with propidium iodide, and analysed for NFAT-GFP expression using flow cytometry (FACS Calibur).
# (§5) To determine whether the Mincle binding observed in Example 1 correlated with cellular activation, nuclear factor of activated T cells (NFAT)-green fluorescent protein (GFP) reporter cells expressing mMincle or hMincle coupled to FcRγ were stimulated using plates coated with TDM, TDB, brartemicin (9i), or analogues 9a-9h.
# (§6) Activation of the reporter cells was measured through the production of GFP, which was monitored by flow cytometry (FIGS. 1b and 3c).
# (§7) With the compounds 43a-h in hand, the ability of these analogues to bind and signal through Mincle was assessed (FIG. 5). Accordingly, NFAT-GFP reporter cells expressing mMincle+FcRγ, hMincle+FcRγ, or FcRγ-only were stimulated with the 2G-brartemicin analogues 43a-h, TDB, iPrOH, or the p-OC18H37 substituted analogue, 9f. Reporter cell activation was measured by the production of NFAT-GFP, which was analysed by flow cytometry.
# hMincle+FcRγ = molecular target: T4, hMincle+FcRγ (Homo sapiens, UniProt Q9ULY5); test: 2B4-NFAT-GFP reporter cells expressing hMincle+FcRγ; format: cell-based; conditions: ligand-coated plates 0.01, 0.1 or 1 nmol/well, 18 hours
# T4 construct: expressed in transfected cells; host or cells: 2B4-NFAT-GFP reporter cells
# T4 sequence (Q9ULY5 1-219): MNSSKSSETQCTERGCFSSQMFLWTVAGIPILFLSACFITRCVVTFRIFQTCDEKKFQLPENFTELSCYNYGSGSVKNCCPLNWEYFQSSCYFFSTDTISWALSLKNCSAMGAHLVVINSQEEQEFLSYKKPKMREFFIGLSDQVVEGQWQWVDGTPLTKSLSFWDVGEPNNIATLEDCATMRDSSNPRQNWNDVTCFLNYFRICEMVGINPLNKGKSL
# Protocol: as §1, §4, §5, §6, §7
# wild-type GM-CSF BMDMs = test: Cytokine/chemokine production by wild-type GM-CSF BMDMs on ligand-coated plates; format: cell-based, C57BL/6 mice; conditions: for MIP-2 production / IL-1β production / IL-6 production / TNF production: wild-type BMDMs, coated plates 0.1 or 1 nmol/well, 24 hours, ELISA
# Protocol: as §1
# Murine bone-marrow derived macrophages: For the preparation of murine bone-marrow derived macrophages, bone marrow cells were collected from the tibias and femurs of C57BL/6 mice and cultured (250,000 cells/mL) in complete RPMI media [RPMI-1640 (Gibco) with 10% heat inactivated fetal bovine serum (Gibco), 100 unit/mL penicillin-streptomycin (Gibco) and 2 mM Glutamax (Gibco)] supplemented with 50 ng/mL GM-CSF (clone X63/GM-CSF murine cells). Cells were incubated at 37° C. (5% CO2) for 8 days (cells fed by replacing half the media on days 3 and 6). On day 8, all media was removed and the cells were washed with Dulbecco's Phosphate-Buffered Saline (DPBS, Gibco) to remove any loosely-adherent cells. The BMDMs were harvested with StemPro Acutase (1 mL/well, 15 minutes at room temperature, Gibco) and seeded onto a pre-coated 96-well plate. The supernatant was collected and analysed for cytokine/chemokine production after 24 hours.
# Cytokine analysis: IL-1β, IFN-γ, IL-6, TNF-α (BD Biosciences), IL-17, and MIP-2 (R&D) levels were determined via sandwich ELISA according to the manufacturer's instructions.
# First, the ability of the compounds to activate GM-CSF BMDMs was determined by monitoring the secretion of the inflammatory cytokines TNF, IL-6, and IL-1β and the chemokine, MIP-2, in a ligand-coated plate assay (FIG. 2).
# To gain insight into the capacity of the 2G-series of brartemicin analogues to induce an inflammatory immune response, the analogues were then screened for their ability to activate WT and Mincle^−/− BMDMs, with cellular activation being determined by the measurement of IL-1B using ELISA (FIG. 6).
Compound,"binding to mMincle-Ig (ELISA, OD at 450 nm) (mMincle-Ig)","binding to hMincle-Ig (ELISA, OD at 450 nm) (hMincle-Ig)",activation of mMincle NFAT-GFP reporter cells (GFP by flow cytometry) (mMincle+FcRγ),activation of hMincle NFAT-GFP reporter cells (GFP by flow cytometry) (hMincle+FcRγ),MIP-2 production (wild-type GM-CSF BMDMs),IL-1β production (wild-type GM-CSF BMDMs),IL-6 production (wild-type GM-CSF BMDMs),TNF production (wild-type GM-CSF BMDMs),activation of mMincle NFAT-GFP reporter cells (GFP by flow cytometry) (mMincle+FcRγ; listed as Brartemicin),activation of BMDMs (wild-type GM-CSF BMDMs)
"CCCCOc1ccc(C(=O)OCC2O[C@H](O[C@H]3OC(COC(=O)c4ccc(OCCCC)cc4O)[C@@H](O)C(O)C3O)C(O)C(O)[C@@H]2O)c(O)c1 (stereo partly drawn) [9c, 6,6′-Di-O-(2-hydroxy-4-butoxybenzoyl)-α,α′-D-trehalose]",did not bind hMincle- or mMincle-Ig to any great extent,did not bind hMincle- or mMincle-Ig to any great extent,able to activate mMincle and hMincle only at high ligand concentrations,able to activate mMincle and hMincle only at high ligand concentrations,induced MIP-2,,,,,
"CCCCCCCOc1cc(C)c(C(=O)OCC2O[C@H](O[C@H]3OC(COC(=O)c4c(C)cc(OCCCCCCC)cc4O)[C@@H](O)C(O)C3O)C(O)C(O)[C@@H]2O)c(O)c1 (stereo partly drawn) [9h, 6,6′-Di-O-(4-heptyloxy-2-hydroxy-6-methylbenzoyl)-α,α′-D-trehalose]",good binding,good binding,strongly activated,strongly activated,significant production,significant production,significant production,significant production,,
"Cc1cc(O)cc(O)c1C(=O)OC[C@H]1O[C@H](O[C@H]2O[C@H](COC(=O)c3c(C)cc(O)cc3O)[C@@H](O)[C@H](O)[C@H]2O)[C@H](O)[C@@H](O)[C@@H]1O [9i, Brartemicin]",did not bind hMincle- or mMincle-Ig to any great extent,did not bind hMincle- or mMincle-Ig to any great extent,did not significantly activate mMincle,not to activate,did not induce the production of any of the cytokines measured,did not induce the production of any of the cytokines measured,did not induce the production of any of the cytokines measured,did not induce the production of any of the cytokines measured,not to activate,not to activate

# — patent US11510980B2, “Brartemicin analogues” (VICTORIA LINK LTD, priority 2017, dated 2022)
